In the supplement of paper PMC11451515:

Test system: SEM cells
Assay: cell viability relative to DMSO control; higher = less cytotoxic
Details: 48 h
In short: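 In 1536-well plates, 5 μl of leukemia cells were seeded per well: 500 cells/well for NOMO1 or SEM and 1000 cells/well for P12-Ichikawa. Each line had first been adapted for at least four passages in each medium. Library compounds in DMSO were pin-dosed at 11 threefold concentrations between 47 μM and 0.79 nM, and CellTiter-Glo One luminescence was read after 48 h at 37°C. Viability is a per-plate percentage relative to DMSO wells, with cell-free wells as background.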

[1] = HPLM + 10% dialyzed FBS, 0.000781 µM
[2] = HPLM + 10% dialyzed FBS, 0.00234 µM
[3] = HPLM + 10% dialyzed FBS, 0.00702 µM
[4] = HPLM + 10% dialyzed FBS, 0.0211 µM
[5] = HPLM + 10% dialyzed FBS, 0.0632 µM
[6] = HPLM + 10% dialyzed FBS, 0.19 µM
[7] = HPLM + 10% dialyzed FBS, 0.569 µM
[8] = HPLM + 10% dialyzed FBS, 1.71 µM
[9] = HPLM + 10% dialyzed FBS, 5.12 µM
[10] = HPLM + 10% dialyzed FBS, 15.4 µM
[11] = HPLM + 10% dialyzed FBS, 46.1 µM
[12] = RPMI 5 mM glucose + 10% FBS, 0.000781 µM
[13] = RPMI 5 mM glucose + 10% FBS, 0.00234 µM
[14] = RPMI 5 mM glucose + 10% FBS, 0.00702 µM
[15] = RPMI 5 mM glucose + 10% FBS, 0.0211 µM
[16] = RPMI 5 mM glucose + 10% FBS, 0.0632 µM
[17] = RPMI 5 mM glucose + 10% FBS, 0.19 µM
[18] = RPMI 5 mM glucose + 10% FBS, 0.569 µM
[19] = RPMI 5 mM glucose + 10% FBS, 1.71 µM
[20] = RPMI 5 mM glucose + 10% FBS, 5.12 µM
[21] = RPMI 5 mM glucose + 10% FBS, 15.4 µM
[22] = RPMI 5 mM glucose + 10% FBS, 46.1 µM
[23] = RPMI 5 mM glucose + 10% dialyzed FBS, 0.000781 µM
[24] = RPMI 5 mM glucose + 10% dialyzed FBS, 0.00234 µM
[25] = RPMI 5 mM glucose + 10% dialyzed FBS, 0.00702 µM
[26] = RPMI 5 mM glucose + 10% dialyzed FBS, 0.0211 µM
[27] = RPMI 5 mM glucose + 10% dialyzed FBS, 0.0632 µM
[28] = RPMI 5 mM glucose + 10% dialyzed FBS, 0.19 µM
[29] = RPMI 5 mM glucose + 10% dialyzed FBS, 0.569 µM
[30] = RPMI 5 mM glucose + 10% dialyzed FBS, 1.71 µM
[31] = RPMI 5 mM glucose + 10% dialyzed FBS, 5.12 µM
[32] = RPMI 5 mM glucose + 10% dialyzed FBS, 15.4 µM
[33] = RPMI 5 mM glucose + 10% dialyzed FBS, 46.1 µM

| SMILES | cell viability [1] [%] | cell viability [2] [%] | cell viability [3] [%] | cell viability [4] [%] | cell viability [5] [%] | cell viability [6] [%] | cell viability [7] [%] | cell viability [8] [%] | cell viability [9] [%] | cell viability [10] [%] | cell viability [11] [%] | cell viability [12] [%] | cell viability [13] [%] | cell viability [14] [%] | cell viability [15] [%] | cell viability [16] [%] | cell viability [17] [%] | cell viability [18] [%] | cell viability [19] [%] | cell viability [20] [%] | cell viability [21] [%] | cell viability [22] [%] | cell viability [23] [%] | cell viability [24] [%] | cell viability [25] [%] | cell viability [26] [%] | cell viability [27] [%] | cell viability [28] [%] | cell viability [29] [%] | cell viability [30] [%] | cell viability [31] [%] | cell viability [32] [%] | cell viability [33] [%] |
| --- | --- | --- | --- | --- | --- | --- | --- | --- | --- | --- | --- | --- | --- | --- | --- | --- | --- | --- | --- | --- | --- | --- | --- | --- | --- | --- | --- | --- | --- | --- | --- | --- | --- |
| c1cc(-c2sc(-c3ccncc3)c(-c3ccncc3)c2-c2ccncc2)ccn1 | 90.9 | 107 | 108 | 110 | 106 | 116 | 107 | 82.4 | 43.3 | 20.7 | 14.9 | 89.6 | 87.8 | 93.9 | 89.3 | 106 | 97.9 | 101 | 63.5 | 29.6 | 17.9 | 13.2 | 102 | 101 | 118 | 113 | 106 | 110 | 103 | 67.3 | 41 | 22.4 | 15.1 |
| Cc1cc(SCc2sc(-c3ccc(C(F)(F)F)c(F)c3)nc2C)ccc1OCC(=O)O | 104 | 107 | 105 | 40.9 | 103 | 109 | 108 | 111 | 105 | 98.9 | 96.1 | 102 | 74.9 | 96.7 | 43.2 | 100 | 107 | 99.4 | 101 | 104 | 93.8 | 103 | 93.4 | 93.3 | 106 | 48.4 | 93.6 | 104 | 100 | 100 | 91.6 | 101 | 96.5 |
| CC1=CC2=C(O1)C(=C3OC(=O)\C=C(C)/C3=C2)C | 70.2 | 81.2 | 86.8 | 88.7 | 84 | 84.5 | 83.8 | 92.5 | 90.6 | 88.9 | 74.1 | 72 | 91.5 | 93.7 | 96.8 | 86.7 | 103 | 98.3 | 103 | 105 | 92.2 | 91 | 89 | 100 | 94.8 | 102 | 93.4 | 107 | 109 | 104 | 121 | 111 | 105 |
| OC1=C(C=CC=C1)C2=CC=C(C=C2)C3=CSC4=C3C(=C(/C#N)C(=O)N4)/O | 114 | 123 | 131 | 129 | 120 | 132 | 124 | 113 | 96.6 | 113 | 103 | 111 | 109 | 118 | 112 | 105 | 90.5 | 98.6 | 112 | 87.4 | 96.7 | 90.9 | 113 | 117 | 124 | 133 | 121 | 126 | 115 | 117 | 104 | 110 | 100 |
| COc1cc2c(NC3CCN(C(C)C)CC3)nc(C3CCCCC3)nc2cc1OCCCN1CCCC1 | 111 | 125 | 109 | 122 | 122 | 125 | 130 | 81.9 | 108 | 61.7 | 6.83 | 109 | 113 | 122 | 116 | 112 | 122 | 109 | 77.3 | 113 | 76.6 | 10.2 | 90.1 | 114 | 111 | 119 | 116 | 113 | 112 | 76.8 | 115 | 93.5 | 32.9 |
| Cn1cc(-c2ccncc2)c(-c2ccc(OCc3ccc4ccccc4n3)cc2)n1 | 124 | 127 | 95 | 134 | 132 | 123 | 116 | 124 | 125 | 110 | 110 | 123 | 126 | 102 | 118 | 118 | 125 | 122 | 124 | 95.3 | 81.1 | 82.4 | 94.6 | 108 | 89.7 | 112 | 98 | 102 | 112 | 110 | 103 | 96.8 | 64.3 |
| COc1cc(/C=C/C(=O)CC(=O)/C=C/c2ccc(O)c(OC)c2)ccc1O | 66.6 | 96.9 | 108 | 98.8 | 102 | 99.5 | 104 | 118 | 90.4 | 15.1 | 5.19 | 77.5 | 114 | 119 | 128 | 137 | 120 | 120 | 128 | 99.5 | 23.6 | 5.59 | 72.8 | 96.8 | 106 | 108 | 107 | 115 | 107 | 118 | 90.8 | 34.8 | 5.02 |
| CCC(CC)[C@H](NC(C)=O)[C@@H]1[C@H](O)[C@@H](C(=O)O)C[C@H]1NC(=N)N | 62 | 68 | 77.2 | 87.2 | 76.1 | 32.7 | 57.9 | 79.1 | 78.3 | 66.1 | 87.8 | 89.2 | 84.2 | 84.6 | 80.4 | 103 | 17.8 | 94.4 | 102 | 87.2 | 77.7 | 88.3 | 69.9 | 71.9 | 80.8 | 80.9 | 81.8 | 56.7 | 50.9 | 95.9 | 114 | 71.9 | 68.6 |
| Cc1nc2c([nH]1)-c1ccccc1N(C(=O)c1ccc(NC(=O)c3ccccc3-c3ccccc3)cc1)CC2 | 91.3 | 115 | 90.8 | 123 | 114 | 122 | 123 | 115 | 113 | 128 | 124 | 123 | 120 | 100 | 138 | 129 | 129 | 141 | 163 | 128 | 149 | 118 | 111 | 143 | 108 | 131 | 140 | 160 | 130 | 121 | 127 | 166 | 124 |
| CC1(C)CC(=O)c2c(C(F)(F)F)nn(-c3ccc(C(N)=O)c(NC4CCC(OC(=O)CN)CC4)c3)c2C1 (stereo not drawn) | 106 | 104 | 113 | 112 | 114 | 73.2 | 35.7 | 20.2 | 17 | 17.3 | 17.8 | 108 | 99.1 | 105 | 120 | 112 | 73.3 | 37.3 | 23.9 | 18.4 | 15.3 | 16.1 | 94.8 | 95.2 | 100 | 89.2 | 89.5 | 63.3 | 34.5 | 20.5 | 17.3 | 14.3 | 14.7 |
| CN(C)[C@H]\1[C@@H]2[C@@H](O)[C@@H]\3C(=C)C4=C(C(=CC=C4)O)C(=O)C3=C(\O)[C@@]2(O)C(=O)\C(=C1O)C(N)=O | 85.1 | 91.5 | 81.1 | 97.1 | 90.4 | 98.6 | 98.2 | 113 | 96.5 | 97.8 | 91.6 | 104 | 97.8 | 82.5 | 119 | 112 | 124 | 118 | 118 | 105 | 93.9 | 79.7 | 112 | 121 | 86.7 | 108 | 122 | 125 | 106 | 123 | 114 | 107 | 91.6 |
| COC(=O)N[C@H](C(=O)N[C@@H](Cc1ccccc1)[C@@H](O)CN(Cc1ccc(-c2ccccn2)cc1)NC(=O)[C@@H](NC(=O)OC)C(C)(C)C)C(C)(C)C | – | – | – | – | – | – | – | – | – | – | – | 103 | 123 | 152 | 111 | 136 | 110 | 122 | 110 | 128 | 116 | 96.7 | 101 | 118 | 136 | 123 | 132 | 131 | 110 | 113 | 122 | 123 | 79.9 |
| COc1ccc(Cn2ccc3ccc(C(=O)NO)cc32)cc1 | 102 | 107 | 120 | 120 | 123 | 113 | 127 | 118 | 112 | 114 | 58.5 | 103 | 115 | 122 | 98.1 | 109 | 129 | 127 | 127 | 109 | 109 | 49.3 | 99.6 | 110 | 115 | 76.3 | 114 | 118 | 112 | 110 | 112 | 111 | 38.5 |
| CN1[C@@H]2CC(O)C[C@H]1[C@@H]1O[C@@H]12 (stereo partly drawn) | – | – | – | – | – | – | – | – | – | – | – | 124 | 123 | 114 | 19.5 | 134 | 115 | 109 | 130 | 115 | 109 | 7.57 | 101 | 126 | 116 | 21.8 | 103 | 111 | 103 | 106 | 94.3 | 81.4 | 5.54 |
| c1ccc2c(Oc3nc(Nc4ccc(N5CCOCC5)cc4)c4ncn(C5CCCCC5)c4n3)cccc2c1 | 91 | 96.7 | 101 | 112 | 120 | 116 | 131 | 120 | 99.7 | 100 | 67.1 | 101 | 122 | 138 | 133 | 133 | 136 | 125 | 139 | 108 | 105 | 67 | 108 | 141 | 115 | 130 | 142 | 129 | 126 | 109 | 126 | 110 | 53.4 |
